In brackets after ≈: the same amount, converted by molar mass.

For the first data set, the target named is T1, Potassium voltage-gated channel subfamily A member 5 (Homo sapiens, UniProt P22460). The data set can be described thus: Inhibition of human Kv1.5 channel expressed in mouse L929 cells assessed as blockade of ultra rapidly activating potassium current at 1 uM by voltage clamp technique. Type of data set: cell-based.
T1 sequence (P22460 whole entry): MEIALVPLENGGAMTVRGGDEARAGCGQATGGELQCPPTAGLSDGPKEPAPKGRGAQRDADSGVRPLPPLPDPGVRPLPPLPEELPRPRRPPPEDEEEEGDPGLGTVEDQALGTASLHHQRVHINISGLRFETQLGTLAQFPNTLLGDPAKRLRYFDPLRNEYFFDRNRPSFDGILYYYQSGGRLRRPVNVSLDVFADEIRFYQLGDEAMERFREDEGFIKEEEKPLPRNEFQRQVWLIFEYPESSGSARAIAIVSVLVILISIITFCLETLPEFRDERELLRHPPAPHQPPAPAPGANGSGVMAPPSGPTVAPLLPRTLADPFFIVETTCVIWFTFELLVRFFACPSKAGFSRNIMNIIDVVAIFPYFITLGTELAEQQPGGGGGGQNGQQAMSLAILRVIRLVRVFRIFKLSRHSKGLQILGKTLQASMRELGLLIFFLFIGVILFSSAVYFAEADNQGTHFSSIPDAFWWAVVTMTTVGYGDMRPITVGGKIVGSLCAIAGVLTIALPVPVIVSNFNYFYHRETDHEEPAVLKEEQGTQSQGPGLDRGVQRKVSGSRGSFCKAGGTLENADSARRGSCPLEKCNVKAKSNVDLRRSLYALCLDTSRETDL
For orientation: inhibition means the drop in the measured response relative to a control, in per cent. Take `CCc1ccc(S(=O)(=O)N[C@@H]2c3cc(C(=O)Nc4nnc(C(F)(F)F)s4)cnc3OC(C)(C)[C@H]2O)cc1` (racemic): the inhibition was determined as 3%. Consider `CCc1ccc(S(=O)(=O)N[C@@H]2c3cc(C(=O)N(CC)Cc4cccc(OC)c4)cnc3OC(C)(C)[C@H]2O)cc1` (racemic), for which the inhibition turned out to be 23%. As to `CCc1ccc(S(=O)(=O)N[C@@H]2c3cc(C(=O)N(CC)Cc4c(F)cccc4Cl)cnc3OC(C)(C)[C@H]2O)cc1` (racemic), the inhibition amounted to 54%. The same measure, in the same setting: to `CCc1ccc(S(=O)(=O)N[C@@H]2c3cc(C(=O)Nc4ccc(Br)cc4)cnc3OC(C)(C)[C@H]2O)cc1` (racemic) belongs 8%. On to `CCc1ccc(S(=O)(=O)N[C@@H]2c3cc(C(=O)N(CC)c4ccccc4)cnc3OC(C)(C)[C@H]2O)cc1` (racemic), for which the inhibition turned out to be 89%. Regarding `CCc1ccc(S(=O)(=O)N[C@@H]2c3cc(C(=O)N(CC)c4cc(F)ccc4F)cnc3OC(C)(C)[C@H]2O)cc1` (racemic), the inhibition was found to be 52%.

On to `CCc1ccc(S(=O)(=O)N[C@@H]2c3cc(C(=O)N(CC)Cc4ccccc4)cnc3OC(C)(C)[C@H]2O)cc1` (racemic), for which the inhibition amounted to 20%.

In the case of `CCc1ccc(S(=O)(=O)N[C@@H]2c3cc(C(=O)N(CC)Cc4ccccc4OC)cnc3OC(C)(C)[C@H]2O)cc1` (racemic), the inhibition was 35%. Consider `CCc1ccc(S(=O)(=O)N[C@@H]2c3cc(C(=O)N(CC)c4cccc(C)c4)cnc3OC(C)(C)[C@H]2O)cc1` (racemic), for which the inhibition is 58%.

For the molecule `CCc1ccc(S(=O)(=O)N[C@@H]2c3cc(C(=O)NCc4ccccc4F)cnc3OC(C)(C)[C@H]2O)cc1` (racemic), the inhibition amounted to 4%.

As for `CCc1ccc(S(=O)(=O)N[C@@H]2c3cc(C(=O)N(CC)c4cccc(Cl)c4)cnc3OC(C)(C)[C@H]2O)cc1` (racemic), the inhibition turned out to be 64%. In the case of `CCc1ccc(S(=O)(=O)N[C@@H]2c3cc(C(=O)N(CC)c4ccc(OC)cc4)cnc3OC(C)(C)[C@H]2O)cc1` (racemic), the inhibition worked out at 22%. `CCc1ccc(S(=O)(=O)N[C@@H]2c3cc(C(=O)N(C)c4ccccc4)cnc3OC(C)(C)[C@H]2O)cc1` (racemic): the inhibition stood at 12%. Same read-out and setting: then `CCc1ccc(S(=O)(=O)N[C@@H]2c3cc(C(=O)N(C)Cc4ccccc4)cnc3OC(C)(C)[C@H]2O)cc1` (racemic), with 12%; and `CCc1ccc(S(=O)(=O)N[C@@H]2c3cc(C(=O)N(C)c4ccccc4)ccc3OC(C)(C)[C@H]2O)cc1` (racemic), with 87%. Turning to `CCc1ccc(S(=O)(=O)N[C@@H]2c3cc(C(=O)N4CCC[C@H]4CNc4c(C)cccc4C)cnc3OC(C)(C)[C@H]2O)cc1` (racemic), the inhibition was found to be 15%. Take `CCc1ccc(S(=O)(=O)N[C@@H]2c3cc(C(=O)N4CCN=C4c4ccccc4)cnc3OC(C)(C)[C@H]2O)cc1` (racemic): the inhibition came to 2%. On the same count and under the same terms, to `CCc1ccc(S(=O)(=O)N[C@@H]2c3cc(C(=O)N(CC)Cc4ccc(C)cc4)cnc3OC(C)(C)[C@H]2O)cc1` (racemic) belongs 15%. For `CCc1ccc(S(=O)(=O)N[C@@H]2c3cc(C(=O)N4CCc5ccccc54)cnc3OC(C)(C)[C@H]2O)cc1` (racemic), the inhibition was found to be 30%. For the molecule `CCc1ccc(S(=O)(=O)N[C@@H]2c3cc(C(=O)Nc4cc(NC(C)=O)n[nH]4)cnc3OC(C)(C)[C@H]2O)cc1` (racemic), the inhibition was 31%. Consider `CCc1ccc(S(=O)(=O)N[C@@H]2c3cc(C(=O)N(CC)Cc4ccc(OC)cc4)cnc3OC(C)(C)[C@H]2O)cc1` (racemic), for which the inhibition was 70%.

Turning to `CCc1ccc(S(=O)(=O)N[C@@H]2c3cc(C(=O)Nc4ccc(Br)cc4)ccc3OC(C)(C)[C@H]2O)cc1` (racemic), the inhibition worked out at 73%. Take `CCc1ccc(S(=O)(=O)N[C@@H]2c3cc(C(=O)NCc4ccccc4)cnc3OC(C)(C)[C@H]2O)cc1` (racemic): the inhibition was 17%.

System in a further data set: not listed separately
The data set can be described thus: Aqueous solubility at pH 6.5. Type of data set: physicochemical.
The term solubility denotes the dissolved amount per volume that the medium holds. A lower solubility goes with a poorly soluble substance. Molecule `CCc1ccc(S(=O)(=O)N[C@@H]2c3cc(C(=O)N(CC)Cc4ccccc4F)ccc3OC(C)(C)[C@H]2O)cc1` (racemic) registered a solubility of 10 µg/mL (≈ 18.5 µM). Take `CCc1ccc(S(=O)(=O)N[C@@H]2c3cc(C(=O)N(CC)c4ccccc4)cnc3OC(C)(C)[C@H]2O)cc1` (racemic): the concentration in solution (solubility) came to 108 µg/mL (≈ 212 µM). This solubility lies about 11-fold higher than the previous one.

A further data set has as its target T1, Potassium voltage-gated channel subfamily A member 5. As to the kind of experiment: Inhibition of human Kv1.5 channel expressed in mouse L929 cells assessed as blockade of ultra rapidly activating potassium current by voltage clamp technique. Type of data set: cell-based.
The term IC50 denotes the concentration that inhibits the measured activity by half. For `CCc1ccc(S(=O)(=O)N[C@@H]2c3cc(C(=O)N(CC)Cc4c(F)cccc4Cl)cnc3OC(C)(C)[C@H]2O)cc1` (racemic), the IC50 is 615 nM. Take `CCc1ccc(S(=O)(=O)N[C@@H]2c3cc(C(=O)N(CC)c4ccccc4)cnc3OC(C)(C)[C@H]2O)cc1` (racemic): the IC50 came out at 378 nM. For `CCc1ccc(S(=O)(=O)N[C@@H]2c3cc(C(=O)N(CC)c4cc(F)ccc4F)cnc3OC(C)(C)[C@H]2O)cc1` (racemic), the IC50 was determined as 912 nM. With `CCc1ccc(S(=O)(=O)N[C@@H]2c3cc(C(=O)N(CC)Cc4ccccc4OC)cnc3OC(C)(C)[C@H]2O)cc1` (racemic), the IC50 came to 2090 nM. `CCc1ccc(S(=O)(=O)N[C@@H]2c3cc(C(=O)N(CC)c4cccc(C)c4)cnc3OC(C)(C)[C@H]2O)cc1` (racemic): the IC50 is 776 nM.

Regarding `CCc1ccc(S(=O)(=O)N[C@@H]2c3cc(C(=O)N(CC)c4cccc(Cl)c4)cnc3OC(C)(C)[C@H]2O)cc1` (racemic), the IC50 turned out to be 649 nM. Turning to `CCc1ccc(S(=O)(=O)N[C@@H]2c3cc(NC(=O)c4cccc(OC)c4)ccc3C[C@H]2O)cc1`, the IC50 is 50 nM.

As for `CCc1ccc(S(=O)(=O)N[C@@H]2c3cc(C(=O)N(CC)Cc4ccc(C)cc4)cnc3OC(C)(C)[C@H]2O)cc1` (racemic), the IC50 stood at 1560 nM. As to `CCc1ccc(S(=O)(=O)N[C@@H]2c3cc(C(=O)N4CCC[C@H]4CNc4c(C)cccc4C)ccc3OC(C)(C)[C@H]2O)cc1` (racemic), the 50% inhibitory concentration (IC50) amounted to 60 nM.

For the molecule `CCc1ccc(S(=O)(=O)N[C@@H]2c3cc(C(=O)N(CC)Cc4ccc(OC)cc4)cnc3OC(C)(C)[C@H]2O)cc1` (racemic), the IC50 was determined as 605 nM.

For the molecule `CCc1ccc(S(=O)(=O)N[C@@H]2c3cc(C(=O)Nc4ccc(Br)cc4)ccc3OC(C)(C)[C@H]2O)cc1` (racemic), the IC50 came to 316 nM.

Take `CCc1ccc(S(=O)(=O)N[C@H]2CCCc3ccc(N(Cc4cccc(C)n4)C(=O)CCc4ccccc4)cc32)cc1`: the IC50 was found to be 46 nM.

For the origin of these results see ChEMBL document CHEMBL1144831, “Pyrano-[2,3b]-pyridines as potassium channel antagonists” (Bioorg Med Chem Lett, 2008).
